Assay type in all cases: in vivo, BALB/c mouse
The test system of assay [1] is inflammatory cell recruitment into the airways. The assay can be described thus: Differential cell counts in bronchoalveolar lavage fluid (BALF). From the text:
(§1) FIG. 4 illustrates experimental design. All groups except control group were immunized with mite crude extract allergen on days 1 and 8, then mite crude extract allergen intratracheally on day 15 in all mite treated group, BALB/c mouse were divided into six groups (1) control group (PBS), (2) mites delivered intratracheally (mIT, mite on day 15) alone, (3) CMP intranasal (eIN, CMP on days 1 to 22) alone, (4) preventive-treatment group (eIN+mIT, CMP on days 1 to 14, mite on day 15) (5) therapy-treatment group (mIT+eIN, mite on day 15, CMP on days 15 to 22), and (6) preventive- and therapeutic-treatment group (eIN+mIT+eIN, CMP on days 1 to 22, mite on day 15).
FIG. 7 illustrates inhibitory effect of CMP on cell response in bronchoalveolar lavage fluid (BALF). BALF were collected from all experimental groups of mice. Cell populations were identified on air-dried cytocentrifuged smears after staining with Diff-Quuick stain. Differential cell counts were performed on a minimum of 300 cells to identify macrophages, eosinophils, segment or lymphocytes. Data represent one of three independent experiments. Each result was expressed as the mean±S.D., n=4. ***, P<0.001.
Mice were divided into six groups: 1) control (n=10), 2) mite crude extract allergen delivered intratracheally (mIT) alone (n=10), 3) CMP intranasal (eIN) alone (n=12), 4) preventive-treatment group (eIN+mIT; n=12), 5) therapeutic-treatment group (mIT+eIN; n=12), and 6) preventive- and therapeutic-treatment group (eIN+mIT+eIN; n=18) (FIG. 4). All groups receiving mIT were immunized with mite crude extract allergen on days 1 and 8 and then given mite crude extract allergen intratracheally on day 15. The cIN and eIN+mIT+eIN groups received cIN from days 1 to 22, the cIN+mIT group received eIN from days 1 to 15 (before mIT), and the mIT+eIN group received eIN from days 15 (post-mIT) to 22. All mice were sacrificed on day 23. The animal use protocol was reviewed and approved by Institutional Animal Care and Use Committee (IACUC Approval No: La-95279).
The trachea was exposed and cannulated. Two washings, each consisting of 1.0 ml of phosphate-buffered saline, were introduced into the lungs via the cannula and withdrawn to collect the cells. Bronchoalveolar lavage fluid (BALF) from each wash was placed in polypropylene tubes on ice. The collected BALF was then centrifuged at 300×g for 7 min at 4° C. […] Total cell numbers were counted on a hemocytometer, and 1−5×10^3 cells were spun onto glass microscope slides (cytospin, Shandon Scientific, Cheshire, UK). […] The number of cells recovered was calculated and expressed as absolute cell numbers.
To identify the extent of inflammatory cell recruitment into the airways under allergen challenge circumstance, the amount of inflammatory cell were measured in BALF. […]

The subject of a further assay is IL-13. The assay can be described thus: Cytokine ELISA of lung protein extract (IL-13). Particulars: eIN+mIT, mIT+eIN and eIN+mIT+eIN groups.
Description: as §1
(§2) FIG. 9 illustrates inhibitory effect of CMP on lung protein extract. Lung protein extracts from different groups of mouse were assayed for the indicated cytokines. Data represent one of three independent experiments. Levels of CCL-11, IL-5, IL-13 and IL-17A/F levels in lung protein extracts from mouse from treatment groups were measured by Enzyme-linked immunosorbent assay (ELISA). Each result was expressed as the mean±S.D., n=4. **, P<0.01, ***, P<0.001. […]
(§3) Levels of cytokines from lung protein extract were measured by ELISA. […] The microplates were read at 450 nm with an ELISA reader (Thermo Labsystems, Waltham, Mass., USA). […]
On the technique in general: An ELISA detects its analyte on a solid surface through an enzyme-linked reagent.

The next assay concerns CCL-11. Briefly: Cytokine ELISA of lung protein extract (CCL-11). Particulars: eIN+mIT, mIT+eIN and eIN+mIT+eIN groups.
Description: as §1, §2, §3

Consider NYRWRCKNQN (CMP), for which the “eosinophil count in BALF compared with mIT group” value in assay [1] (eIN+mIT group) is given as “lower”. Also, in assay [1] (eIN+mIT+eIN group), the “eosinophil count in BALF compared with mIT group” value is “lower”, the “lymphocyte count in BALF compared with mIT group” value is “lower” and the “macrophage count in BALF compared with mIT group” value was “lower”. For the same sequence, the “IL-13 in lung protein extract compared with mIT group” value in the assay on IL-13 is given as “lower concentrations”. In the assay on CCL-11, the “CCL-11 in lung protein extract compared with mIT group” value is “lower concentrations”.
